Measured values: article PMC7999182, “Interaction of Remdesivir with Clinically Relevant Hepatic Drug Uptake Transporters” (Pharmaceutics, 2021)

Biological target: T1, OATP2B1 (Homo sapiens, UniProt O94956)
T1 construct: expressed in transfected cells
T1 sequence (O94956 1-709): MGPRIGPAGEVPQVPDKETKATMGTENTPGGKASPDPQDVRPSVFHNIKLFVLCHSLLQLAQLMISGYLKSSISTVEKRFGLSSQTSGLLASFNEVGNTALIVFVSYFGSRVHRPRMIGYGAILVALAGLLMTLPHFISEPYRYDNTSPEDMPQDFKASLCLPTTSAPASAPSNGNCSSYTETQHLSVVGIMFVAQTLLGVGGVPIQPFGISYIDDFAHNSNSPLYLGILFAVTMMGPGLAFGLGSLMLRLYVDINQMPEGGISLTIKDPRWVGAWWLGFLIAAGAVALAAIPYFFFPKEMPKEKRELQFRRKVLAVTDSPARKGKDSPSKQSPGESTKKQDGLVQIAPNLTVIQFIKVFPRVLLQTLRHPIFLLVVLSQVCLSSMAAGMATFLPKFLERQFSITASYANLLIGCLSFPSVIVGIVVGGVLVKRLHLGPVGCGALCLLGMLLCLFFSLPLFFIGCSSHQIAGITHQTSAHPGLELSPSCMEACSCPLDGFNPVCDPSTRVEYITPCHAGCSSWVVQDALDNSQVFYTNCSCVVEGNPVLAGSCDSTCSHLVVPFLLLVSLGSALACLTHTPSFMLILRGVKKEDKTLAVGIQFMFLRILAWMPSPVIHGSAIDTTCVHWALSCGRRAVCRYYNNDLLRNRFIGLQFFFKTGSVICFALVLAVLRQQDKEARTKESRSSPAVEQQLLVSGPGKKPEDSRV
Experiment: Inhibition of OATP2B1-mediated estrone sulfate uptake
Format: cell-based
Source text: Generation, cultivation and characterization of human embryonic kidney (HEK) cells stably expressing OATP1B1 refseq (=OATP1B1*1a), OATP1B1*1b, OATP1B1*5 and OATP1B1*15 [18], OATP1B3 [19], OATP2B1 [13] and OCT1 [20] have been described previously. OATP1B1 cells were cultivated in minimal essential medium (Life Technologies, Paisley, UK) and OATP1B3, OATP2B1 and OCT1 cells were cultivated in Dulbecco’s modified Eagle medium (Sigma, Darmstadt, Germany). Cultivation media were supplemented with 10% fetal calf serum, 100 U/mL penicillin and 100 µg/mL streptomycin. Cells were grown at 37 °C and 5% CO2. Functionality of the cells was confirmed by measuring uptake of prototypic substrates (see Section 2.3 and supplementary material).
Prototypic substrate uptake was performed as described previously. For this, uptake solutions contained the respective substrate with tracer amounts of radiolabeled substrate. In case of inhibition studies, uptake solutions additionally contained different concentrations of remdesivir. […] Cells were then lysed with 0.2% sodium dodecyl sulfate and intracellular radioactivity was measured by liquid scintillation counting (Tricarb2800, PerkinElmer Life Sciences GmbH, Rodgau, Germany or Hidex 300SL TDCR liquid scintillation counter, Turku, Finland). […]

With CCC(CC)COC(=O)[C@H](C)N[P@](=O)(OC[C@H]1O[C@@](C#N)(c2ccc3c(N)ncnn23)[C@H](O)[C@@H]1O)Oc1ccccc1 [Remdesivir] the “Effect on prototypic substrate uptake” value (1 µM estrone sulfate, 30 sec uptake, different remdesivir concentrations) was “significant concentration-dependent inhibitory effect” and the “Transporter inhibition at 10 µM” value (10 µM remdesivir, estrone sulfate as substrate) was “inhibition”.
